Results on 1 compound are retold here after article PMC11395244, “Ginsenoside Rh2 Alleviates LPS-Induced Inflammatory Responses by Binding to TLR4/MD-2 and Blocking TLR4 Dimerization” (International Journal of Molecular Sciences, 2024).

For the assay, the target named is T1, MD-2 (measured as TLR4/MD-2 complex) (Homo sapiens, UniProt Q9Y6Y9).
T1 construct: gene LY96; recombinant human TLR4/MD-2; His-Flag TLR4/MD-2 protein; with TLR4
Put plainly: SPR (Biacore T200, CM5 chip, immobilised TLR4/MD-2 complex). In kind it is binding. Background: In SPR one partner is held on a chip, and binding of the other changes the refractive index at the surface.

In general, Kd refers to the free concentration of one partner at which half of the binding sites on the other are occupied at equilibrium, for simple one-to-one binding.

T1 sequence (Q9Y6Y9 19-160): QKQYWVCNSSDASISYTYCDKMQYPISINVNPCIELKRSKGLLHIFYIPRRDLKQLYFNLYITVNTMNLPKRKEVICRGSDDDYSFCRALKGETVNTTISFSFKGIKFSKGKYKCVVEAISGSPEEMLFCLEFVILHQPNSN
T1 sequence (O00206 24-839 partner): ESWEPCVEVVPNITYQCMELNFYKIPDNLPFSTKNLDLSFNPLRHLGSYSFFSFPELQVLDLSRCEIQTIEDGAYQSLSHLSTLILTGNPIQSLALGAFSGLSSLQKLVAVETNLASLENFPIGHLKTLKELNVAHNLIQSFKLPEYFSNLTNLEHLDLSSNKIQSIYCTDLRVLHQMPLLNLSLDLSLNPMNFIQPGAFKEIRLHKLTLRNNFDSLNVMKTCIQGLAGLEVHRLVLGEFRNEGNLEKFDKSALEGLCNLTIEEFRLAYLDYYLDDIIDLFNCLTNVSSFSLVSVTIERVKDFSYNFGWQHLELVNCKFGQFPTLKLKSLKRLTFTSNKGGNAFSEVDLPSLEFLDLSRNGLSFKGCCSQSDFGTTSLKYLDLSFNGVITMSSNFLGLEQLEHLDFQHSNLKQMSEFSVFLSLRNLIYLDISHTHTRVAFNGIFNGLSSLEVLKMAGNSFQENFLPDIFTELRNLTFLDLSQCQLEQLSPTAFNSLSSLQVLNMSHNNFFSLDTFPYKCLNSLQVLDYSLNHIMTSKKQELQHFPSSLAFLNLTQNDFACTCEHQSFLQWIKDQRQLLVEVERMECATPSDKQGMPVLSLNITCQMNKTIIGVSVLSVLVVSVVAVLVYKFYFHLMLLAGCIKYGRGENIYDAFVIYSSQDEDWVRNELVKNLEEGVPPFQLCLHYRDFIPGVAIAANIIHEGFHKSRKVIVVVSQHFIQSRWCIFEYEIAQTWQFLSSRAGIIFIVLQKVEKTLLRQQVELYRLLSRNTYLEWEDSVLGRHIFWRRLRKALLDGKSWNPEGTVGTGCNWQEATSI

Consider `CC(C)=CCC[C@](C)(O)[C@H]1CC[C@]2(C)[C@@H]1[C@H](O)C[C@@H]1[C@@]3(C)CC[C@H](O[C@@H]4O[C@H](CO)[C@@H](O)[C@H](O)[C@H]4O)C(C)(C)[C@@H]3CC[C@]12C` [G-Rh2, Ginsenoside Rh2], for which the Kd is 71.2 µM.
